This is an account of results in patent publication US11572399B2, “Long-acting GIP peptide analogues” (University of Copenhagen, priority 2017, dated 2023).

This assay concerns the target T1, human GIP receptor (Homo sapiens, UniProt P48546).
T1 construct: host or cells: COS-7, transient transfection (calcium phosphate), cDNA in pCMV-Script
T1 sequence (P48546 22-466): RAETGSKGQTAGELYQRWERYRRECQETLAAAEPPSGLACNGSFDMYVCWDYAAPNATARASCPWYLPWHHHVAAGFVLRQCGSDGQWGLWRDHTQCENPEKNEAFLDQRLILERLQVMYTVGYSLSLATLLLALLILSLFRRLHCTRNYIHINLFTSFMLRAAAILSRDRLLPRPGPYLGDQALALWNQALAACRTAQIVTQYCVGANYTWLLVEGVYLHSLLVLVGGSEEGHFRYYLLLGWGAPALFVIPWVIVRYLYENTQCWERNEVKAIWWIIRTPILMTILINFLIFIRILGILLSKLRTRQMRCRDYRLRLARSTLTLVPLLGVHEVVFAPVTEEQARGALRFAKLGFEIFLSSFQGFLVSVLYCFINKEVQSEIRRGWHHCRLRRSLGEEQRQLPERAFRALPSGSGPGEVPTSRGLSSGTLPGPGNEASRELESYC
Briefly: cAMP accumulation assay, agonism (ligand alone). It counts as cell-based. Particulars: COS-7 cells, Table 1; for Emax: COS-7, intrinsic cAMP activity; for EC50: read-out: cAMP agonism nM (EC50). On the procedure:
COS-7 cells were cultured at 10% CO2 and 37° C. in Dulbecco's modified Eagle's medium 1885 supplemented with 10% fetal bovine serum, 2 mM glutamine, 180 units/ml penicillin, and 45 µg/ml streptomycin. Transient transfection of the COS-7 cells for cAMP accumulation and competition binding was performed using the calcium phosphate precipitation method with the addition of chloroquine^46-47.
Transient transfected COS-7 cells expressing the human GIP receptor were seeded in white 96-well plates with a density of 3.5*10^4/well. The day after, the cells were washed twice with Hepes buffered saline (HBS) buffer and incubated with HBS and 1 mM 3-isobutyl-1-methylxanthine (IBMX) for 30 min at 37° C. To test for agonistic properties, ligands were added and incubated for 30 min at 37° C. In order to test for antagonistic properties, the cells were preincubated with the antagonists for 10 min prior to the addition of the agonist and subsequent incubated for 20 additional min. The HitHunter™ cAMP XS assay (DiscoveRx) was carried out according to the manufacturer's instructions.
IC50, EC50, and Ki values were determined by nonlinear regression. These were carried out with the GraphPad Prism 6.0 software (GraphPad, San Diego, Calif., USA) and Microsoft Excel™. Ki values were based on the formula for one class of binding sites in homologous competition binding studies and the Cheng Prussoffs formula, respectively (DeBlasi et al., 1989). To determine the HSA binding potential, the fold change in affinity (as determined by IC50) was calculated as IC50 (plus HSA)/IC50 (minus HSA).

Structures are written as SMILES. Peptide text beside a SMILES is read from it. * marks the point of attachment. C16 diacid = O=C(O)CCCCCCCCCCCCCCC(=O)*; Lauroyl = CCCCCCCCCCCC(=O)*

As a reminder, the Emax is the greatest response seen or fitted, relative to the assay's reference. What is called EC50 is the concentration needed to bring the measured effect to its halfway point. Consider `CC[C@H](C)[C@H](NC(=O)[C@H](CO)NC(=O)[C@H](Cc1ccc(O)cc1)NC(=O)[C@H](CC(=O)O)NC(=O)[C@H](CO)NC(=O)[C@@H](NC(=O)[C@H](Cc1ccccc1)NC(=O)[C@@H](NC(=O)[C@H](CCCCNC(=O)CCCCCCCCCCCCCCC(=O)O)NC(=O)[C@@H](N)CCC(=O)O)[C@@H](C)O)[C@@H](C)CC)C(=O)N[C@@H](C)C(=O)N[C@@H](CCSC)C(=O)N[C@@H](CC(=O)O)C(=O)N[C@@H](CCCCN)C(=O)N[C@H](C(=O)N[C@@H](Cc1c[nH]cn1)C(=O)N[C@@H](CCC(N)=O)C(=O)N[C@@H](CCC(N)=O)C(=O)N[C@@H](CC(=O)O)C(=O)N[C@@H](Cc1ccccc1)C(=O)N[C@H](C(=O)N[C@@H](CC(N)=O)C(=O)N[C@@H](Cc1c[nH]c2ccccc12)C(=O)N[C@@H](CC(C)C)C(=O)N[C@@H](CC(C)C)C(=O)N[C@@H](C)C(=O)N[C@@H](CCC(N)=O)C(=O)N[C@@H](CCCCN)C(N)=O)C(C)C)[C@@H](C)CC` [AT295, [hGIP(3-30)NH2[G4K]-C16diacid/4]], for which the Emax was 78.6% and the EC50 was determined as 2.6 nM.
With `CC[C@H](C)[C@H](NC(=O)[C@H](CCCCNC(=O)CCCCCCCCCCCCCCC(=O)O)NC(=O)[C@H](Cc1ccc(O)cc1)NC(=O)[C@H](CC(=O)O)NC(=O)[C@H](CO)NC(=O)[C@@H](NC(=O)[C@H](Cc1ccccc1)NC(=O)[C@@H](NC(=O)CNC(=O)[C@@H](N)CCC(=O)O)[C@@H](C)O)[C@@H](C)CC)C(=O)N[C@@H](C)C(=O)N[C@@H](CCSC)C(=O)N[C@@H](CC(=O)O)C(=O)N[C@@H](CCCCN)C(=O)N[C@H](C(=O)N[C@@H](Cc1c[nH]cn1)C(=O)N[C@@H](CCC(N)=O)C(=O)N[C@@H](CCC(N)=O)C(=O)N[C@@H](CC(=O)O)C(=O)N[C@@H](Cc1ccccc1)C(=O)N[C@H](C(=O)N[C@@H](CC(N)=O)C(=O)N[C@@H](Cc1c[nH]c2ccccc12)C(=O)N[C@@H](CC(C)C)C(=O)N[C@@H](CC(C)C)C(=O)N[C@@H](C)C(=O)N[C@@H](CCC(N)=O)C(=O)N[C@@H](CCCCN)C(N)=O)C(C)C)[C@@H](C)CC` [AT302, [hGIP(3-30)NH2[S11K]-C16diacid/11]] (H-EGTFISDYK(C16 diacid)IAMDKIHQQDFVNWLLAQK-NH2; N-terminus assumed), the “cAMP agonism Emax” value (intrinsic cAMP activity) is on record as “no ag”.
In turn, `CC[C@H](C)[C@H](NC(=O)[C@H](CO)NC(=O)[C@H](Cc1ccc(O)cc1)NC(=O)[C@H](CC(=O)O)NC(=O)[C@H](CO)NC(=O)[C@@H](NC(=O)[C@H](Cc1ccccc1)NC(=O)[C@@H](NC(=O)CNC(=O)[C@@H](N)CCC(=O)O)[C@@H](C)O)[C@@H](C)CC)C(=O)N[C@@H](C)C(=O)N[C@@H](CCSC)C(=O)N[C@@H](CC(=O)O)C(=O)N[C@@H](CCCCN)C(=O)N[C@H](C(=O)N[C@@H](Cc1c[nH]cn1)C(=O)N[C@@H](CCC(N)=O)C(=O)N[C@@H](CCC(N)=O)C(=O)N[C@@H](CC(=O)O)C(=O)N[C@@H](CCCCNC(=O)CCCCCCCCCCCCCCC(=O)O)C(=O)N[C@H](C(=O)N[C@@H](CC(N)=O)C(=O)N[C@@H](Cc1c[nH]c2ccccc12)C(=O)N[C@@H](CC(C)C)C(=O)N[C@@H](CC(C)C)C(=O)N[C@@H](C)C(=O)N[C@@H](CCC(N)=O)C(=O)N[C@@H](CCCCN)C(N)=O)C(C)C)[C@@H](C)CC` [AT311, [hGIP(3-30)NH2[F22K]-C16diacid/22]] (H-EGTFISDYSIAMDKIHQQDK(C16 diacid)VNWLLAQK-NH2; N-terminus assumed) showed an Emax of 17.5%.
On to `CC[C@H](C)[C@H](NC(=O)[C@H](CO)NC(=O)[C@H](Cc1ccc(O)cc1)NC(=O)[C@H](CC(=O)O)NC(=O)[C@H](CO)NC(=O)[C@@H](NC(=O)[C@H](Cc1ccccc1)NC(=O)[C@@H](N)CCCCNC(=O)CCCCCCCCCCCCCCC(=O)O)[C@@H](C)CC)C(=O)N[C@@H](C)C(=O)N[C@@H](CCSC)C(=O)N[C@@H](CC(=O)O)C(=O)N[C@@H](CCCCN)C(=O)N[C@H](C(=O)N[C@@H](Cc1c[nH]cn1)C(=O)N[C@@H](CCC(N)=O)C(=O)N[C@@H](CCC(N)=O)C(=O)N[C@@H](CC(=O)O)C(=O)N[C@@H](Cc1ccccc1)C(=O)N[C@H](C(=O)N[C@@H](CC(N)=O)C(=O)N[C@@H](Cc1c[nH]c2ccccc12)C(=O)N[C@@H](CC(C)C)C(=O)N[C@@H](CC(C)C)C(=O)N[C@@H](C)C(=O)N[C@@H](CCC(N)=O)C(=O)N[C@@H](CCCCN)C(N)=O)C(C)C)[C@@H](C)CC` [AT293, [hGIP(5-30)NH2[T5KK]-C16diacid/5]], for which the Emax is 0%.
Still for that read-out and setting: the result for `CCCCCCCCCCCC(=O)NCCCC[C@H](NC(=O)[C@H](CCC(N)=O)NC(=O)[C@H](C)NC(=O)[C@H](CC(C)C)NC(=O)[C@H](CC(C)C)NC(=O)[C@H](Cc1c[nH]c2ccccc12)NC(=O)[C@H](CC(N)=O)NC(=O)[C@@H](NC(=O)[C@H](Cc1ccccc1)NC(=O)[C@H](CC(=O)O)NC(=O)[C@H](CCC(N)=O)NC(=O)[C@H](CCC(N)=O)NC(=O)[C@H](C)NC(=O)[C@@H](NC(=O)[C@H](CCCCN)NC(=O)[C@H](CCC(=O)O)NC(=O)[C@H](CCSC)NC(=O)[C@H](C)NC(=O)[C@@H](NC(=O)[C@H](CO)NC(=O)[C@H](Cc1ccc(O)cc1)NC(=O)[C@H](CC(=O)O)NC(=O)[C@H](CO)NC(=O)[C@@H](NC(=O)[C@H](Cc1ccccc1)NC(=O)[C@@H](NC(=O)CNC(=O)[C@@H](N)CCC(=O)O)[C@@H](C)O)[C@@H](C)CC)[C@@H](C)CC)[C@@H](C)CC)C(C)C)C(N)=O` [AT130, [hGIP(3-30)NH2[D15E; H18A]-C12/30]] (H-EGTFISDYSIAMEKIAQQDFVNWLLAQK(Lauroyl)-NH2; N-terminus assumed) reads 49%.
As to `CC[C@H](C)[C@H](NC(=O)[C@H](CO)NC(=O)[C@H](Cc1ccc(O)cc1)NC(=O)[C@H](CC(=O)O)NC(=O)[C@H](CO)NC(=O)[C@@H](NC(=O)[C@H](Cc1ccccc1)NC(=O)[C@@H](NC(=O)CNC(=O)[C@H](CCC(=O)O)NC(=O)CCCCCCCCCCC(=O)O)[C@@H](C)O)[C@@H](C)CC)C(=O)N[C@@H](C)C(=O)N[C@@H](CCSC)C(=O)N[C@@H](CC(=O)O)C(=O)N[C@@H](CCCCN)C(=O)N[C@H](C(=O)N[C@@H](CCCNC(=N)N)C(=O)N[C@@H](CCC(N)=O)C(=O)N[C@@H](CCC(N)=O)C(=O)N[C@@H](CC(=O)O)C(=O)N[C@@H](Cc1ccccc1)C(=O)N[C@H](C(=O)N[C@@H](CC(N)=O)C(=O)N[C@@H](Cc1c[nH]c2ccccc12)C(=O)N[C@@H](CC(C)C)C(=O)N[C@@H](CC(C)C)C(=O)N[C@@H](C)C(=O)N[C@@H](CCC(N)=O)C(=O)N[C@@H](CCCNC(=N)N)C(N)=O)C(C)C)[C@@H](C)CC` [AT149, [hGIP(3-30)NH2[H18R; K30R]-C12diacid/3]], the Emax was 50% and the half-maximal effective concentration (EC50) amounted to 24 nM.
With `CC[C@H](C)[C@H](NC(=O)[C@H](CO)NC(=O)[C@H](Cc1ccc(O)cc1)NC(=O)[C@H](CC(=O)O)NC(=O)[C@H](CO)NC(=O)[C@@H](NC(=O)[C@H](Cc1ccccc1)NC(=O)[C@@H](NC(=O)CNC(=O)[C@@H](N)CCC(=O)O)[C@@H](C)O)[C@@H](C)CC)C(=O)N[C@@H](C)C(=O)N[C@@H](CCSC)C(=O)N[C@@H](CC(=O)O)C(=O)N[C@@H](CCCCN)C(=O)N[C@H](C(=O)N[C@@H](Cc1c[nH]cn1)C(=O)N[C@@H](CCC(N)=O)C(=O)N[C@@H](CCC(N)=O)C(=O)N[C@@H](CC(=O)O)C(=O)N[C@@H](Cc1ccccc1)C(=O)N[C@H](C(=O)N[C@@H](CCCCNC(=O)CCCCCCCCCCCCCCC(=O)O)C(=O)N[C@@H](Cc1c[nH]c2ccccc12)C(=O)N[C@@H](CC(C)C)C(=O)N[C@@H](CC(C)C)C(=O)N[C@@H](C)C(=O)N[C@@H](CCC(N)=O)C(=O)N[C@@H](CCCCN)C(N)=O)C(C)C)[C@@H](C)CC` [AT313, [hGIP(3-30)NH2[N24K]-C16diacid/24]] (H-EGTFISDYSIAMDKIHQQDFVK(C16 diacid)WLLAQK-NH2; N-terminus assumed), the Emax stood at 7.2%.
The same measure, in the same setting: the result for `CCCCCCCCCCCCCC(=O)NCCCC[C@H](NC(=O)[C@H](CCC(N)=O)NC(=O)[C@H](C)NC(=O)[C@H](CC(C)C)NC(=O)[C@H](CC(C)C)NC(=O)[C@H](Cc1c[nH]c2ccccc12)NC(=O)[C@H](CC(N)=O)NC(=O)[C@@H](NC(=O)[C@H](Cc1ccccc1)NC(=O)[C@H](CC(=O)O)NC(=O)[C@H](CCC(N)=O)NC(=O)[C@H](CCC(N)=O)NC(=O)[C@H](Cc1c[nH]cn1)NC(=O)[C@@H](NC(=O)[C@H](CCCCN)NC(=O)[C@H](CC(=O)O)NC(=O)[C@H](CCSC)NC(=O)[C@H](C)NC(=O)[C@@H](NC(=O)[C@H](CO)NC(=O)[C@H](Cc1ccc(O)cc1)NC(=O)[C@H](CC(=O)O)NC(=O)[C@H](CO)NC(=O)[C@@H](NC(=O)[C@H](Cc1ccccc1)NC(=O)[C@@H](N)[C@@H](C)O)[C@@H](C)CC)[C@@H](C)CC)[C@@H](C)CC)C(C)C)C(N)=O` [AT123, [hGIP(5-30)NH2—C14/30]] reads 64%.
